Measured values published in ChEMBL document CHEMBL5331122, “Structure-Activity Relationship Study of Antimicrobial Peptide PE2 Delivered Novel Linear Derivatives with Potential of Eradicating Biofilms and Low Incidence of Drug Resistance” (J Med Chem, 2023).
The source made the active and inactive calls. Where a SMILES comes first, the peptide text is derived from it. Bridges are numbered along the chain shown (N, C = ends). [ ]: non-standard residue; d: D form. The star is where a group is joined. Heptanoyl(6-Me) = CC(C)CCCCC(=O)*; dDab = NCC[C@@H](N)C(=O)O; Dab = NCC[C@H](N)C(=O)O

Key:
[1] = Acute toxicity in Kunming mouse assessed as survival rate at 31.7 mg/kg, ip measured after 2 hrs; format: organism-based; conditions: in vivo
[2] = system: Erythrocyte; experiment: Hemolytic activity in mouse red blood cell assessed as hemolysis incubated for 1 hr; format: toxicity, cell-based; conditions: dose 4-256 µg/ml
[3] = Acute toxicity in Kunming mouse assessed as survival rate at 20 to 31.7 mg/kg, ip measured at 2 hrs; format: organism-based; conditions: in vivo, dose 20-31.7 mg/kg
[4] = Acute toxicity in ip dosed Kunming mouse assessed as lethal dose measured upto 7 days; format: organism-based; conditions: Kunming, in vivo, time < 7 day
[5] = Acute toxicity in Kunming mouse assessed as survival rate at 20 mg/kg, ip measured for 7 days; format: organism-based; conditions: in vivo, 168 h, time 7 day
[6] = system: Staphylococcus aureus; experiment: Inhibition of biofilm formation in Staphylococcus aureus ATCC 25923 assessed as inhibition of biofilm formation at 1/2 times MIC incubated for 24 hrs by crystal violet staining based analysis; format: functional, organism-based
[7] = system: Staphylococcus aureus; experiment: Induction of membrane morphological changes in Staphylococcus aureus ATCC 25923 assessed as appearance of broken bacterial cells at 4 times MIC measured at 0.5 to 2 hrs by SEM analysis; format: functional, organism-based; conditions: time 0.5-2 hrs
[8] = system: Escherichia coli; experiment: Bactericidal activity against Escherichia coli ATCC 25922 assessed as inhibition of bacterial growth at 1 times MIC measured at 120 mins by time-kill assay; format: functional, organism-based
[9] = system: Escherichia coli; experiment: Antimicrobial activity against Escherichia coli ATCC 25922 assessed as reduction in microbial growth measured for 18 hrs in presence of 512 microg/ml LPS; format: functional, organism-based
[10] = system: Staphylococcus aureus; experiment: Induction of drug resistance against Staphylococcus aureus ATCC 25923 measured upto 15 passages by sequential passaging method; format: functional
[11] = system: Staphylococcus aureus; experiment: Synergistic antibacterial activity against Staphylococcus aureus ATCC 25923 incubated for 18 hrs in presence of rifampicin by checkerboard assay; format: functional, organism-based
[12] = system: Cell membrane; experiment: Induction of outer membrane permeabilization in Escherichia coli ATCC 25922 assessed as increase in fluorescence intensity at 4 times MIC measured for 12 hrs by NPN uptake assay; format: subcellular
[13] = system: Cell membrane; experiment: Induction of cell membrane damage in Staphylococcus aureus ATCC 25923 at 2 times MIC after 0.5 to 2 hrs by propidium iodide staining based flow cytometer assay; format: subcellular; conditions: time 0.5-2 hrs
[14] = system: Staphylococcus aureus; experiment: Bactericidal activity against Staphylococcus aureus ATCC 25923 assessed as inhibition of bacterial growth incubated upto 360 mins by time-kill assay; format: functional, organism-based
[15] = system: Klebsiella pneumoniae; experiment: Antibacterial activity against Klebsiella pneumoniae ATCC 700603 infected in BALB/c mouse pneumonia model assessed as reduction in lung bacterial load at 5 to 10 mg/kg, ip measured at 4 to 12 hrs; format: functional, organism-based; conditions: dose 5-10 mg/kg, time 4-12 hrs
[16] = system: Escherichia coli; experiment: Antimicrobial activity against Escherichia coli ATCC 25922 assessed as reduction in microbial growth measured for 18 hrs in presence of […] microg/ml LPS; format: functional, organism-based
[17] = system: Staphylococcus aureus; experiment: Inhibition of biofilm formation in Staphylococcus aureus ATCC 25923 assessed as inhibition of biofilm formation at 1 times MIC incubated for 24 hrs by crystal violet staining based analysis; format: functional, organism-based
[18] = system: Staphylococcus aureus; experiment: Induction of membrane morphological changes in Staphylococcus aureus ATCC 25923 assessed as appearance of adherent bacterial cells at 4 times MIC measured at 0.5 to 2 hrs by SEM analysis; format: functional, organism-based; conditions: time 0.5-2 hrs
[19] = system: Cell membrane; experiment: Induction of outer membrane permeabilization in Escherichia coli ATCC 25922 assessed as increase in fluorescence intensity at 1 to 4 times MIC measured for 12 hrs by NPN uptake assay; format: subcellular
[20] = system: Escherichia coli; experiment: Bactericidal activity against Escherichia coli ATCC 25922 assessed as inhibition of bacterial growth at 2 times MIC measured upto 360 mins by time-kill assay; format: functional, organism-based
[21] = system: Escherichia coli; experiment: Antibacterial activity against Escherichia coli ATCC 25922 in presence of 10% mouse serum measured for 6 hrs; format: functional, organism-based
[22] = system: Staphylococcus aureus; experiment: Bactericidal activity against Staphylococcus aureus ATCC 25923 assessed as inhibition of bacterial growth at 0.5 to 2 times MIC by time-kill assay; format: functional, organism-based; conditions: time <= 360.0 min, TDE = time-dependent effect
[23] = system: Staphylococcus aureus; experiment: Induction of membrane morphological changes in Staphylococcus aureus ATCC 25923 assessed as appearance of blistered bacterial cells at 4 times MIC measured at 0.5 to 2 hrs by SEM analysis; format: functional, organism-based; conditions: time 0.5-2 hrs
[24] = system: Escherichia coli; experiment: Bactericidal activity against Escherichia coli ATCC 25922 assessed as inhibition of bacterial growth incubated upto 360 mins by time-kill assay; format: functional, organism-based
[25] = system: Staphylococcus aureus; experiment: Bactericidal activity against Staphylococcus aureus ATCC 25923 assessed as inhibition of bacterial growth at 1/2 times MIC measured upto 360 mins by time-kill assay; format: functional, organism-based
[26] = system: Cell membrane; experiment: Induction of cell membrane damage in Escherichia coli ATCC 25922 at 2 times MIC after 0.5 to 2 hrs by propidium iodide staining based flow cytometer assay; format: subcellular; conditions: time 0.5-2 hrs
[27] = system: Staphylococcus aureus; experiment: Bactericidal activity against Staphylococcus aureus ATCC 25923 assessed as inhibition of bacterial growth at 2 times MIC measured at 120 mins by time-kill assay; format: functional, organism-based
[28] = system: Escherichia coli; experiment: Induction of membrane morphological changes in Escherichia coli ATCC 25922 at 4 times MIC measured at 0.5 to 2 hrs by SEM analysis; format: functional, organism-based; conditions: time 0.5-2 hrs
[29] = system: Cell membrane; experiment: Induction of outer membrane permeabilization in Escherichia coli ATCC 25922 assessed as increase in fluorescence intensity at 2 times MIC measured for 12 hrs by NPN uptake assay; format: subcellular
[30] = system: Escherichia coli; experiment: Bactericidal activity against Escherichia coli ATCC 25922 assessed as inhibition of bacterial growth at 0.5 to 2 times MIC by time-kill assay; format: functional, organism-based; conditions: time <= 360.0 min, TDE = time-dependent effect
[31] = system: Staphylococcus aureus; experiment: Antibacterial activity against Staphylococcus aureus ATCC 25923 in presence of 10% mouse serum measured for 6 hrs; format: functional, organism-based
[32] = system: Klebsiella pneumoniae; experiment: Antibacterial activity against Klebsiella pneumoniae ATCC 700603 infected in BALB/c mouse pneumonia model at 5 to 10 mg/kg, ip measured at 4 to 12 hrs; format: functional, organism-based; conditions: dose 5-10 mg/kg, time 4-12 hrs
[33] = system: Escherichia coli; experiment: Additive antibacterial activity against Escherichia coli ATCC 25922 assessed as bacterial growth inhibition incubated for 18 hrs in presence of gentamycin by checkerboard assay; format: functional, organism-based
[34] = system: Staphylococcus aureus; experiment: Additive antibacterial activity against Staphylococcus aureus ATCC 25923 assessed as bacterial growth inhibition incubated for 18 hrs in presence of gentamycin by checkerboard assay; format: functional, organism-based
[35] = system: Escherichia coli; experiment: Synergistic antibacterial activity against rifampicin-resistant Escherichia coli ATCC 25922 incubated for 18 hrs by checkerboard assay; format: functional, organism-based
[36] = system: Escherichia coli; experiment: Additive antibacterial activity against Escherichia coli ATCC 25922 assessed as bacterial growth inhibition incubated for 18 hrs in presence of rifampicin by checkerboard assay; format: functional, organism-based
[37] = system: Staphylococcus aureus; experiment: Additive antibacterial activity against Staphylococcus aureus ATCC 25923 assessed as bacterial growth inhibition incubated for 18 hrs in presence of rifampicin by checkerboard assay; format: functional, organism-based
[38] = system: Staphylococcus aureus; experiment: Induction of membrane morphological changes in Staphylococcus aureus ATCC 25923 at 4 times MIC measured at 0.5 to 2 hrs by SEM analysis; format: functional, organism-based; conditions: time 0.5-2 hrs
[39] = system: Staphylococcus aureus; experiment: Synergistic antibacterial activity against Staphylococcus aureus ATCC 25923 incubated for 18 hrs in presence of gentamycin by checkerboard assay; format: functional, organism-based
[40] = system: Staphylococcus aureus; experiment: Inhibition of biofilm formation in Staphylococcus aureus ATCC 25923 assessed as inhibition of biofilm formation at 1/4 times MIC incubated for 24 hrs by crystal violet staining based analysis; format: functional, organism-based
[41] = system: Escherichia coli; experiment: Bactericidal activity against Escherichia coli ATCC 25922 assessed as inhibition of bacterial growth at 0.5 to 2 times MIC measured at 90 mins by time-kill assay; format: functional, organism-based
[42] = system: Staphylococcus aureus; experiment: Antibiofilm activity against Staphylococcus aureus ATCC 25923 assessed as biofilm eradication at 4 times MIC incubated for 24 hrs; format: functional, organism-based
[43] = system: Escherichia coli; experiment: Inhibition of biofilm formation in Escherichia coli ATCC 25922 assessed as inhibition of biofilm formation at 1/4 times MIC incubated for 24 hrs by crystal violet staining based analysis; format: functional, organism-based
[44] = system: Staphylococcus aureus; experiment: Bactericidal activity against Staphylococcus aureus ATCC 25923 assessed as inhibition of bacterial growth at 2 times MIC measured upto 360 mins by time-kill assay; format: functional, organism-based
[45] = system: Escherichia coli; experiment: Bactericidal activity against Escherichia coli ATCC 25922 assessed as inhibition of bacterial growth at 1/2 times MIC measured at 180 mins by time-kill assay; format: functional, organism-based
[46] = system: Escherichia coli; experiment: Inhibition of biofilm formation in Escherichia coli ATCC 25922 assessed as inhibition of biofilm formation at 1/2 times MIC incubated for 24 hrs by crystal violet staining based analysis; format: functional, organism-based
[47] = system: Cell membrane; experiment: Induction of cell membrane damage in Staphylococcus aureus ATCC 25923 at 2 times MIC measured at 30 mins by propidium iodide staining based flow cytometer assay; format: subcellular
[48] = system: Escherichia coli; experiment: Synergistic antibacterial activity against gentamycin-resistant Escherichia coli ATCC 25922 incubated for 18 hrs by checkerboard assay; format: functional, organism-based
[49] = system: Escherichia coli; experiment: Inhibition of biofilm formation in Escherichia coli ATCC 25922 assessed as inhibition of biofilm formation at 1 to 2 times MIC incubated for 24 hrs by crystal violet staining based analysis; format: functional, organism-based
[50] = system: Escherichia coli; experiment: Inhibition of biofilm formation in Escherichia coli ATCC 25922 assessed as inhibition of biofilm formation incubated for 24 hrs by crystal violet staining based analysis; format: functional, organism-based
[51] = system: Staphylococcus aureus; experiment: Antibiofilm activity against Staphylococcus aureus ATCC 25923 assessed as biofilm eradication at 8 times MIC incubated for 24 hrs; format: functional, organism-based
[52] = system: Cell membrane; experiment: Induction of inner membrane permeabilization in Escherichia coli ML-35 ATCC 43837 assessed as increase in fluorescence intensity at 1 to 4 times MIC incubated upto 150 mins by ONPG staining based analysis; format: subcellular
[53] = system: Staphylococcus aureus; experiment: Bactericidal activity against Staphylococcus aureus ATCC 25923 assessed as inhibition of bacterial growth at 1 times MIC measured upto 360 mins by time-kill assay; format: functional, organism-based
[54] = system: Staphylococcus aureus; experiment: Antibiofilm activity against Staphylococcus aureus ATCC 25923 assessed as biofilm eradication at 1 times MIC incubated for 24 hrs; format: functional, organism-based

CC(C)CCCCC(=O)N[C@@H](CCN)C(=O)N[C@H](C(=O)N[C@@H](CCN)C(=O)N[C@H]1CCNC(=O)[C@H]([C@@H](C)O)NC(=O)[C@H](CCN)NC(=O)[C@H](CCN)NC(=O)[C@H](CC(C)C)NC(=O)[C@@H](Cc2ccccc2)NC(=O)[C@H](CCN)NC1=O)[C@@H](C)O ({Heptanoyl(6-Me)}-[Dab]T[Dab][Dab][Dab][dF]L[Dab][Dab]T; lactam 4-C)
512 µg/mL: HC10 [2]
26.7 mg/kg: LD50 at 168 h [4]
Toxic: Activity [1] | Activity [3]
Non-Toxic: Activity [5]

CC(C)CCCCC(=O)N[C@@H](CCN)C(=O)N[C@H](C(=O)N[C@@H](CCN)C(=O)N[C@H]1CCNC(=O)[C@H]([C@@H](C)O)NC(=O)[C@H](CCN)NC(=O)[C@H](CCN)NC(=O)[C@H](CC(C)C)NC(=O)[C@@H](Cc2ccccc2)NC(=O)[C@@H](CCN)NC1=O)[C@@H](C)O ({Heptanoyl(6-Me)}-[Dab]T[Dab][Dab][dDab][dF]L[Dab][Dab]T; lactam 4-C)
inactive: Activity [9] | inhibition [17] | Activity [25] | inhibition [46] | Activity [47] | Activity [53] | Activity [54]
active: inhibition [6] | Activity [7] | Activity [8] | Activity [10] | Activity [11] | Activity [12] | Activity [13] | Activity [14] Dose-Dependent Effect | Activity [15] | Activity [16] | Activity [18] | Activity [19] | Activity [20] | Activity [21] | Activity [22] Tde | Activity [23] | Activity [24] Dose-Dependent Effect | Activity [26] | Activity [27] | Activity [28] | Activity [29] | Activity [30] Tde | Activity [31] | Activity [32] | Activity [33] | Activity [34] | Activity [35] | Activity [36] | Activity [37] | Activity [38] | Activity [39] | inhibition [40] | Activity [41] | Activity [42] | inhibition [43] | Activity [44] | Activity [45] | Activity [48] | inhibition [49] | inhibition [50] Dose-Dependent Effect | Activity [51] | Activity [52]
